Holding throughout (type): functional
Experiment [1] deals with HCT-116. In words: Growth inhibition of human HCT116 cells assessed as dead cells at 50 uM after 48 hrs by sulforhodamine-B assay relative to control. To be noted: HCT-116, 48 h, read-out: GI. (In general: Sulforhodamine B stains cellular protein and so reports cell mass.)
The subject of experiment [2] is A549. As to the kind of experiment: Growth inhibition of human A549 cells assessed as dead cells at 50 uM after 48 hrs by sulforhodamine-B assay relative to control. To be noted: A549, 48 h, read-out: GI.
Experiment [3] deals with THP-1. In words: Growth inhibition of human THP1 cells assessed as dead cells at 50 uM after 48 hrs by sulforhodamine-B assay relative to control. The following applies: THP-1, 48 h, read-out: GI.
Experiment [4] deals with MCF7. In words: Growth inhibition of human MCF7 cells assessed as dead cells at 50 uM after 48 hrs by sulforhodamine-B assay relative to control. The following applies: MCF7, 48 h, read-out: GI.
Experiment [5] has as its system THP-1. In words: Growth inhibition of human THP1 cells assessed as dead cells at 10 uM after 48 hrs by sulforhodamine-B assay relative to control. To be noted: THP-1, 48 h, read-out: GI.
Experiment [6] relates to HCT-116. In words: Growth inhibition of human HCT116 cells assessed as dead cells at 10 uM after 48 hrs by sulforhodamine-B assay relative to control. To be noted: HCT-116, 48 h, read-out: GI.
The subject of experiment [7] is MCF7. As to the kind of experiment: Growth inhibition of human MCF7 cells assessed as dead cells at 10 uM after 48 hrs by sulforhodamine-B assay relative to control. To be noted: MCF7, 48 h, read-out: GI.
The subject of experiment [8] is A549. In words: Growth inhibition of human A549 cells assessed as dead cells at 10 uM after 48 hrs by sulforhodamine-B assay relative to control. To be noted: A549, 48 h, read-out: GI.

As for `C[C@H]1[C@H](C)CC[C@]2(C(=O)OCc3cn(-c4ccccc4F)nn3)CC[C@]3(C)C(=CC[C@@H]4[C@@]5(C)CCC(=O)C(C)(C)[C@@H]5CC[C@]43C)[C@H]12`, the inhibition of growth at 50 µM with HCT-116 [1] is 12%; in the experiment on A549 [2], 18%; with THP-1 [3] it was 49%; in the experiment with MCF7 [4] it was 15%.

In the case of `C[C@H]1[C@H](C)CC[C@]2(C(=O)OCc3cn(-c4cccc(Br)c4)nn3)CC[C@]3(C)C(=CC[C@@H]4[C@@]5(C)CCC(=O)C(C)(C)[C@@H]5CC[C@]43C)[C@H]12`, the inhibition of growth at 50 µM stood at 10% in the experiment on HCT-116 [1], 16% with A549 [2], 32% in the experiment on THP-1 [3] and 3% in the experiment with MCF7 [4].

As for `C[C@H]1[C@H](C)CC[C@]2(C(=O)OCc3cn(-c4ccc(F)cc4)nn3)CC[C@]3(C)C(=CC[C@@H]4[C@@]5(C)CCC(=O)C(C)(C)[C@@H]5CC[C@]43C)[C@H]12`, the inhibition of growth at 50 µM was 3% with HCT-116 [1], 3% in the experiment with A549 [2], 2% in the experiment on THP-1 [3] and 4% in the experiment on MCF7 [4].

As to `C[C@H]1[C@H](C)CC[C@]2(C(=O)OCc3cn(-c4ccc(I)cc4)nn3)CC[C@]3(C)C(=CC[C@@H]4[C@@]5(C)CCC(=O)C(C)(C)[C@@H]5CC[C@]43C)[C@H]12`, the inhibition of growth at 50 µM with HCT-116 [1] came out at 8%; with A549 [2], 2%; with THP-1 [3] it was 1%; in the experiment on MCF7 [4], 82%.

`C[C@H]1[C@H](C)CC[C@]2(C(=O)OCc3cn(-c4cccc5ccccc45)nn3)CC[C@]3(C)C(=CC[C@@H]4[C@@]5(C)CCC(=O)C(C)(C)[C@@H]5CC[C@]43C)[C@H]12`: the inhibition of growth at 50 µM with HCT-116 [1] is 76%; in the experiment on A549 [2] it was 50%; with THP-1 [3] it was 75%; with MCF7 [4], 80%. Further, the inhibition of growth at 10 µM in the experiment with THP-1 [5] amounted to 47%; with HCT-116 [6] it was 2%; with MCF7 [7], 40%; in the experiment with A549 [8] it was 27%.

With `C[C@H]1[C@H](C)CC[C@]2(C(=O)OCc3cn(-c4ccc(C(F)(F)F)cc4)nn3)CC[C@]3(C)C(=CC[C@@H]4[C@@]5(C)CCC(=O)C(C)(C)[C@@H]5CC[C@]43C)[C@H]12`, the inhibition of growth at 50 µM amounted to 16% in the experiment on HCT-116 [1], 30% in the experiment with A549 [2], 27% in the experiment with THP-1 [3] and 3% with MCF7 [4].

As to `C[C@H]1[C@H](C)CC[C@]2(C(=O)OCc3cn(-c4ccc(Cl)cc4)nn3)CC[C@]3(C)C(=CC[C@@H]4[C@@]5(C)CCC(=O)C(C)(C)[C@@H]5CC[C@]43C)[C@H]12`, the inhibition of growth at 50 µM in the experiment with HCT-116 [1] was determined as 49%; in the experiment on A549 [2], 26%; in the experiment with THP-1 [3], 9%; with MCF7 [4], 52%.

Take `C[C@H]1[C@H](C)CC[C@]2(C(=O)OCc3cn(-c4ccccc4C(F)(F)F)nn3)CC[C@]3(C)C(=CC[C@@H]4[C@@]5(C)CCC(=O)C(C)(C)[C@@H]5CC[C@]43C)[C@H]12`: the inhibition of growth at 50 µM in the experiment on HCT-116 [1] was 23%; with A549 [2] it was 46%; in the experiment on THP-1 [3], 73%; with MCF7 [4], 4%.

Source of the values: ChEMBL document CHEMBL2413076, “Synthesis and biological evaluation of ursolic acid-triazolyl derivatives as potential anti-cancer agents” (Eur J Med Chem, 2013).
